Assay results taken from article doi:10.1101/2022.12.28.522074v1, “Redesigning methionyl-tRNA synthetase for β-methionine activity with adaptive landscape flattening and experiments” (biorxiv, 2022).
Changes are numbered by the printed parent chain. pKd: −log10 of the molar value. Read-outs that look alike come from different tables or passages of the source.

Columns and labels:
Assay in all cases: intrinsic fluorescence titration at equilibrium
Assay type in all cases: binding
[1] = biological target: T1, MetRS M547 (His-tagged monomeric E. coli MetRS) (Escherichia coli, UniProt P00959, I298C/L14M)
T1 construct: gene metG; M547: C-terminally truncated monomeric fragment (about 547 residues), His-tagged, pET15blpa, expressed in E. coli BLR(DE3)
T1 sequence (P00959 2-548 L14M/I298C): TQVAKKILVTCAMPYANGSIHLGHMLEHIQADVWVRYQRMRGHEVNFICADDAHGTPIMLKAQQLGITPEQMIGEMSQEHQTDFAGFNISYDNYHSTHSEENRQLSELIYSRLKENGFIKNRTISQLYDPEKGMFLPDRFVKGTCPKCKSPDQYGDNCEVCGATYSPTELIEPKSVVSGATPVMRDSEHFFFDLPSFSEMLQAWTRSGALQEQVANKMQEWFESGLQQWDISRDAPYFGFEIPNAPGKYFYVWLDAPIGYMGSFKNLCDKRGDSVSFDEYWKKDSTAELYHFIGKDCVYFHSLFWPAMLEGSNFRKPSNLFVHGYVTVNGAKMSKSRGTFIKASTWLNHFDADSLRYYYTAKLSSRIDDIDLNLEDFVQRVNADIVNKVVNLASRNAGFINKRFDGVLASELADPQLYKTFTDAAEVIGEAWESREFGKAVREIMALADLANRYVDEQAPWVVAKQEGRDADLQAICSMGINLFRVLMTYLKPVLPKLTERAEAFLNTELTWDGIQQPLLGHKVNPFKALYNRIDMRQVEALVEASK
From the text: (§1) intrinsic fluorescence titration at equilibrium on MetRS M547 (His-tagged monomeric E. coli MetRS)

[2] = biological target: T2, MetRS M547 (His-tagged monomeric E. coli MetRS) (Escherichia coli, UniProt P00959, I298C/L14C)
T2 construct: gene metG; M547: C-terminally truncated monomeric fragment (about 547 residues), His-tagged, pET15blpa, expressed in E. coli BLR(DE3)
T2 sequence (P00959 2-548 L14C/I298C): T1 sequence (P00959 2-548 L14M/I298C) with M13C
From the text: as §1

[3] = biological target: T3, MetRS M547 (His-tagged monomeric E. coli MetRS) (Escherichia coli, UniProt P00959, I298C)
T3 construct: gene metG; M547: C-terminally truncated monomeric fragment (about 547 residues), His-tagged, pET15blpa, expressed in E. coli BLR(DE3)
T3 sequence (P00959 2-548 I298C): T1 sequence (P00959 2-548 L14M/I298C) with M13L
From the text: as §1

[4] = biological target: T4, MetRS M547 (His-tagged monomeric E. coli MetRS) (Escherichia coli, UniProt P00959)
T4 construct: gene metG; M547: C-terminally truncated monomeric fragment (about 547 residues), His-tagged, pET15blpa, expressed in E. coli BLR(DE3)
T4 sequence (P00959 2-548): T1 sequence (P00959 2-548 L14M/I298C) with M13L, C297I
From the text: as §1

[5] = biological target: T5, MetRS M547 (His-tagged monomeric E. coli MetRS) (Escherichia coli, UniProt P00959, I298C/L14S)
T5 construct: gene metG; M547: C-terminally truncated monomeric fragment (about 547 residues), His-tagged, pET15blpa, expressed in E. coli BLR(DE3)
T5 sequence (P00959 2-548 L14S/I298C): T1 sequence (P00959 2-548 L14M/I298C) with M13S
From the text: as §1

SMILES | pKd ([1]; read-out: Kd(α-Met)) | pKd ([2]; read-out: Kd(α-Met)) | pKd ([3]; read-out: Kd(α-Met)) | pKd ([4]; read-out: Kd(α-Met)) | pKd ([5]; read-out: Kd(α-Met)) | pKd ([1]; read-out: Kd(β-Met)) | pKd ([2]; read-out: Kd(β-Met)) | pKd ([3]; read-out: Kd(β-Met)) | pKd ([4]; read-out: Kd(β-Met)) | pKd ([5]; read-out: Kd(β-Met))
CSCC[C@H](N)C(=O)O [α-Met] | 3.80 | 3.77 | 3.72 | 4.30 | 3.77 |  |  |  |  | 
CSCC[C@H](N)CC(=O)O [β-Met] |  |  |  |  |  | 3.05 | 3.05 | 3.05 | 2.92 | 3.00
